The record followed here is patent publication EP0052909A1, “Derivative of alfa-mercaptopropionilglicine having therapeutical activity, process for its preparation and related pharmaceutical compositions” (Real S.a.s. di Alberto Reiner & C., priority 1980, dated 1982).

The nature of series [1]: Solubility in water. The class given is physicochemical.
In series [2] the test system is female rats. The series can be described thus: Test for possible teratogenic action. As to conditions: 50 mg/Kg from the beginning up to the 19-20 day of gestation. The class given is in vivo, rat. How it is done:
The subject compound was also tested with respect to a possible teratogenic action, by administering to female rats a dose of 50 mg/Kg from the beginning up to the 19-20 day of gestation.

In series [3] the test system is Sprague-Dawley albine rats. The series is described as follows: Acute toxicity by oral route in the rat. The class given is in vivo. As to conditions: evaluated ten days after administration. The protocol:
(§1) Sprague-Dawley albine rats having an average weight of 120 + 5 g and of both sexes were used.
(§2) For each compound 40 rats were treated. The test compound as a suspension in 5% arabic gum was administered through a gastric probe.
(§3) The results were evaluated ten days after the administration.

A short description of series [4]: Acute toxicity by oral route in the rat. Type of series: in vivo. As to conditions: rat, in vivo, rat, evaluated ten days after administration. How it is done: as §1, §2, §3
Series [5] has as its system rats of male sex, of the Sprague-Dawley strain. The series can be described thus: Anti-inflammatory activity in the kaolin test. As to conditions: rat, 10% suspension of kaolin, diameter of the articulation. Type of series: in vivo. How it is done: (§4) The tests used for the evaluation of the anti-inflammatory activity were respectively that of the kaolin and that of the egg white.
a) Anti-inflammatory activity in the kaolin test. For each compound 16 rats of male sex, of the Sprague-Dawley strain and of 200-250 g of body weight, were used. The rats were divided into four groups each comprising four rats. All the animals were injected with a 10% suspension of kaolin. The first group was used as the control, whereas the other three groups were administered with doses respectively of 50,75 and 100 mg/Kg. The measurements of the diameters of the articulation were effected one hour after the kaolin injection and then every 24 hours.
The inoculation of kaolin caused an increase of the tibio-tarsal articulation which has been partially limited by the treatment with the test compound.

Series [6] deals with male rats, of the Sprague-Dawley strain. The series is described as follows: Anti-inflammatory activity in the egg white test. Type of series: in vivo, rat. As to conditions: two oral doses of 100 mg/Kg with a 30 minute interval, 0,1 ml of egg white in the rear paw, measured 3 and 4 hours later. How it is done:
as §4
For each compound 16 male rats, of the Sprague-Dawley strain and weighing 300 g, were used. The animals were divided- in four groups each comprising four rats. The first group served as a control, whereas the other three groups were orally administered, with a 30 minute interval, with two doses of 50,75 and 100 mg/Kg of the test compound.
The last administration was immediately followed by the inoculation of 0,1 ml of egg white in the rear paw of all the animals, including the controls. The measurements of the diameters of the articulations were effected 3 and 4 hours later.

[7] abbreviates: TREATMENT 900 (900 mg/Kg elsewhere in the source), oral by gastric probe.

Structures can show the parent of a compound that is named as a salt. A value given as a limit tells only on which side of the number the result lay.

In the case of `CC(C)Cc1ccc(C(C)C(=O)SC(C)C(=O)NCC(=O)O)cc1` (stereo not shown) [calcium salt], the solubility in water entry in series [1] is reported as “insoluble”.

In the case of `CC(C)Cc1ccc(C(C)C(=O)SC(C)C(=O)NCC(=O)O)cc1` (stereo not shown) [test compound], in series [2], the “reabsorption number and the foeti in the treated rats with respect to the controls” value is recorded as “no significant difference”. The “weight of the foeti” value in series [2] is reported as “did not revealed whatsoever anomaly”. Further, the dead/living is reported as 0/8 in series [3] (TREATMENT 150 (dose unit not given), oral by gastric probe, suspension in 5% arabic gum); 0/8 in series [3] (TREATMENT 300, oral by gastric probe); 0/8 in series [3] (TREATMENT 450, oral by gastric probe); 0/8 in series [3] (TREATMENT 600, oral by gastric probe); 0/8 in series [3] (setting [7]). In series [4] (po), this compound displayed an LD50 at 240 h greater than 900 mg/kg. For the same compound, in series [4] (setting [7]), the mortality at 240 h came out at 0%. In addition, the “ANTI-INFLAMMATORY ACTIVITY %” value in series [5] (75 mg/kg) is recorded as 10%; in series [5] (100 mg/kg), 26%; in series [6], 26%.

`CC(C)Cc1ccc(C(C)C(=O)SC(C)C(=O)NCC(=O)O)cc1` (stereo not shown) [magnesium salt]: the solubility in water result in series [1] is on record as “insoluble”.

On to `CC(C)Cc1ccc(C(C)C(=O)SC(C)C(=O)NCC(=O)O)cc1` (stereo not shown) [sodium salt], for which, in series [1], the solubility in water result is recorded as “highly soluble in water”.

As for `CC(C)Cc1ccc(C(C)C(=O)SC(C)C(=O)NCC(=O)O)cc1` (stereo not shown) [potassium salt], in series [1], the solubility in water entry was “highly soluble in water”.
